Structures can show the parent of a compound that is named as a salt.
Experiments:
[1] = tested on: Human gastric cancer cells (OCUM-2MD3); assay: Tumor growth inhibitory activity against human gastric cancer cells (OCUM-2MD3) in nude mice (Pharmacological Test Example 3); type: in vivo; settings: Mus musculus, read-out: TGIR (tumor growth inhibition rate); for inhibition in vivo at 10 mg: 240 h, dose per day 10 mg × 2, oral
Method: Human gastric cancer cells (OCUM-2MD3) (kindly provided by Dr. Kosei Hirakawa, Osaka City University) were transplanted into nude mice. […] The test compound suspended in 0.5% methylcellulose was orally administered every day twice a day for 5 days (except for the first day on which the suspension was administered once a day).
Only 0.5% methylcellulose was administered to the control group in the manner as in the test groups. The tumor growth inhibition rate (TGIR) was calculated as follows: The tumor growth inhibition rate (TGIR)=(1−TX/CX)×100 wherein CX represents the volume of tumor at day X for the control group when the tumor volume at the day of the start of the administration was presumed to be 1; and TX represents the volume of tumor for test compound administration groups.
Tumor growth inhibitory activity was measured in the same manner as in Pharmacological Test Example 2, except that oral administration was carried out once a day or twice a day (except for the first day on which the suspension was administered once a day).

Bek = Bek (Homo sapiens, UniProt P21802); assay: Inhibitory activity against Bek-autophosphorylation using ELISA method in OCUM-2MD3 cells; type: cell-based; settings: 1 hr with compound, read-out: IC50 (concentration necessary for inhibiting 50% of Bek-phosphorylation)
Procedure, shortened: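 OCUM-2MD3 human scirrhous gastric cancer cells in 0.1% FCS were exposed to compound for 1 hr at 37° C, then lysed. Phospho-tyrosine proteins were captured with anti-phosphotyrosine antibody, probed with anti-Bek antibody and peroxidase read-out (A450). Positive control (1000 nM) set 0%, untreated 100%; IC50 from multi-level dilutions.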

Bek, sequence (P21802 431-767 limits assumed): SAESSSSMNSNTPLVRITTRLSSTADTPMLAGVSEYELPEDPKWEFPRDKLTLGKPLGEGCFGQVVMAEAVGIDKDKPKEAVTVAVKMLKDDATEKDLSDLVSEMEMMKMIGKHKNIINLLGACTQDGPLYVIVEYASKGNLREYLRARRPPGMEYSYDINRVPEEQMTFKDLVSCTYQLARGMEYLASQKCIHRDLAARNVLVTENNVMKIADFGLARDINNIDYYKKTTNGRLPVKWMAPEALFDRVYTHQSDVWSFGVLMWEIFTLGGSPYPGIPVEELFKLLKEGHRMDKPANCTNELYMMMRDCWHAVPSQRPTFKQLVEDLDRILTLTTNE

IC50 (Bek) [nM]	SMILES	inhibition in vivo at 10 mg [1] [%]	inhibition in vivo at 25 mg ([1]; 600 h, dose per day 25 mg × 1, oral) [%]
–	COc1cc2c(Oc3ccc(Nc4ccc(C(C)(C)C)cc4)cc3)ccnc2cc1OCC[N+]1([O-])CCOCC1 [Compound 83, 4-{2-[(4-{4-[4-(Tert-butyl)anilino]phenoxy}-6-methoxy-7-quinolyl)-oxy]ethyl}-1,4-oxazinan-4-ium-4-oleate]	34	–
–	COc1cc2c(Oc3ccc(Nc4ccc(C(C)(C)C)cc4)cc3Cl)ccnc2cc1OCCN1CCOCC1 [Compound 84, N-[4-(Tert-butyl)phenyl]-N-(3-chloro-4-{[6-methoxy-7-(2-morpholinoethoxy)-4-quinolyl]oxy}phenyl)amine]	33	–
–	COc1cc2c(Oc3ccc(Nc4ccc(C(C)(C)C)cc4)cc3)ccnc2cc1OCCNCCO [Compound 85, 2-({2-[(4-{4-[4-(Tert-butyl)anilino]phenoxy}-6-methoxy-7-quinolyl)oxy]ethyl}amino)-1-ethanol]	43	–
–	COc1cc2nccc(Oc3ccc(Nc4ccc(C(C)(C)C)cc4)cc3)c2cc1OCC(O)CN1CCOCC1 (stereo not shown) [Compound 86, 1-[(4-{4-[4-(Tert-butyl)anilino]phenoxy}-7-methoxy-6-quinolyl)-oxy]-3-morpholino-2-propanol]	30	–
< 10	COc1cc2c(Oc3ccc(NC(=O)NCCC(C)(C)C)c(F)c3)ccnc2cc1OCCN1CCOCC1 [Compound 87, 1-(3,3-Dimethyl-butyl)-3-{2-fluoro-4-[6-methoxy-7-(2-morpholin-4-yl-ethoxy)-quinolin-4-yloxy]-phenyl}-urea]	33	54
10.8	COc1cc2c(Oc3ccc(NC(=O)NCCC(C)(C)C)c(F)c3)ccnc2cc1OCCCN1CCOCC1 [Compound 88, 1-(3,3-Dimethyl-butyl)-3-{2-fluoro-4-[6-methoxy-7-(3-morpholin-4-yl-propoxy)-quinolin-4-yloxy]-phenyl}-urea hydrochloride]	35	–
< 10	COc1cc2c(Oc3ccc(NC(=O)NCCC(C)(C)C)c(F)c3)ccnc2cc1OCC(O)CN1CCOCC1 (stereo not shown) [Compound 89, 1-(3,3-Dimethyl-butyl)-3-{2-fluoro-4-[7-(2-hydroxy-3-morpholin-4-yl-propoxy)-6-methoxy-quinolin-4-yloxy]-phenyl}-urea hydrochloride]	29	–
12.6	COc1cc2nccc(Oc3ccc(NC(=O)NCCC(C)(C)C)cc3)c2cc1OCCN1CCOCC1 [Compound 90, 1-(3,3-Dimethyl-butyl)-3-{4-[7-methoxy-6-(2-morpholin-4-yl-ethoxy)-quinolin-4-yloxy]-phenyl}-urea]	36	–
–	COc1cc2c(Oc3ccc(NC(=O)NCCC(C)(C)C)cc3)ccnc2cc1OCCCN1CCC(CO)CC1 [Compound 94, 1-(3,3-Dimethyl-butyl)-3-(4-{7-[3-(4-hydroxymethyl-piperidin-1-yl)-propoxy]-6-methoxy-quinolin-4-yloxy}-phenyl)-urea]	40	–
49.2	COc1cc2c(Oc3ccc(NC(=O)NCCC(C)(C)C)cc3)ccnc2cc1OCCN(CCO)C1CCCCC1 [Compound 362, 1-[4-(7-{2-[Cyclohexyl-(2-hydroxy-ethyl)-amino]-ethoxy}-6-methoxy-quinolin-4-yloxy)-phenyl]-3-(3,3-dimethyl-butyl)-urea]	–	–
364	COCC(C)NCCOc1cc2nccc(Oc3ccc(Nc4ccc(C(C)(C)C)cc4)cc3)c2cc1OC (stereo not shown) [Compound 363, N1-[4-(Tert-butyl)phenyl]-4-[(6-methoxy-7-{2-[(2-methoxy-1-methylethyl)amino]ethoxy}-4-quinolyl)oxy]aniline]	–	–
230	COc1cc2c(Oc3ccc(Nc4ccc(C(C)(C)C)cc4)cc3)ccnc2cc1OCCN(CCO)C1CCCCC1 [Compound 364, 2-[(2-{4-[4-(4-Tert-butyl-phenylamino)-phenoxy]-6-methoxy-quinolin-7-yloxy}-ethyl)-cyclohexyl-amino]-ethanol]	–	–
7130	COc1cc2c(Oc3ccc(Nc4ccc(C(C)(C)C)cc4)cc3)ccnc2cc1OCCN(CCO)Cc1ccccc1 [Compound 365, 2-[Benzyl-(2-{4-[4-(4-tert-butyl-phenylamino)-phenoxy]-6-methoxy-quinolin-7-yloxy}-ethyl)-amino]-ethanol]	–	–
257	CCCN(CCO)CCOc1cc2nccc(Oc3ccc(Nc4ccc(C(C)(C)C)cc4)cc3)c2cc1OC [Compound 366, 2-[(2-{4-[4-(4-Tert-butyl-phenylamino)-phenoxy]-6-methoxy-quinolin-7-yloxy}-ethyl)-propyl-amino]-ethanol]	–	–
468	COc1cc2c(Oc3ccc(Nc4ccc(C(C)(C)C)cc4)cc3)ccnc2cc1OCCN(CCO)C(C)C [Compound 367, 2-[(2-{4-[4-(4-Tert-butyl-phenylamino)-phenoxy]-6-methoxy-quinolin-7-yloxy}-ethyl)-isopropyl-amino]-ethanol]	–	–
157	COc1cc2c(Oc3ccc(NC(=O)NCCC(C)(C)C)cc3)ccnc2cc1OCCN(CCO)Cc1ccccc1 [Compound 368, 1-[4-(7-{2-[Benzyl-(2-hydroxy-ethyl)-amino]-ethoxy}-6-methoxy-quinolin-4-yloxy)-phenyl]-3-(3,3-dimethyl-butyl)-urea]	–	–
42.3	CCCN(CCO)CCOc1cc2nccc(Oc3ccc(NC(=O)NCCC(C)(C)C)cc3)c2cc1OC [Compound 369, 1-(3,3-Dimethyl-butyl)-3-[4-(7-{2-[(2-hydroxy-ethyl)-propyl-amino]-ethoxy}-6-methoxy-quinolin-4-yloxy)-phenyl]-urea]	–	–
130	COc1cc2c(Oc3ccc(NC(=O)NCCC(C)(C)C)cc3)ccnc2cc1OCCN(CCO)C(C)C [Compound 370, 1-(3,3-Dimethyl-butyl)-3-[4-(7-{2-[(2-hydroxy-ethyl)-isopropyl-amino]-ethoxy}-6-methoxy-quinolin-4-yloxy)-phenyl]-urea]	–	–
< 10	COc1cc2c(Oc3ccc(NC(=O)NCCC(C)(C)C)cc3)ccnc2cc1OCCN1CCC(CO)CC1 [Compound 371, 1-(3,3-Dimethyl-butyl)-3-(4-{7-[2-(4-hydroxymethyl-piperidin-1-yl)-ethoxy]-6-methoxy-quinolin-4-yloxy}-phenyl)-urea]	–	–
< 10	COc1cc2c(Oc3ccc(NC(=O)NCCC(C)(C)C)cc3)ccnc2cc1OCCNCCO [Compound 372, 1-(3,3-Dimethyl-butyl)-3-(4-{7-[2-(2-hydroxy-ethylamino)-ethoxy]-6-methoxy-quinolin-4-yloxy}-phenyl)-urea]	–	–
< 10	COc1cc2c(Oc3ccc(NC(=O)NCCC(C)(C)C)cc3)ccnc2cc1OCCN1CCC(O)CC1 [Compound 373, 1-(3,3-Dimethyl-butyl)-3-(4-{7-[2-(4-hydroxy-piperidin-1-yl)-ethoxy]-6-methoxy-quinolin-4-yloxy}-phenyl)-urea]	–	–
32.8	COc1cc2nccc(Oc3ccc(NC(=O)NCCC(C)(C)C)cc3Cl)c2cc1OC [Compound 374, 1-[3-Chloro-4-(6,7-dimethoxy-quinolin-4-yloxy)-phenyl]-3-(3,3-dimethyl-butyl)-urea]	–	–
28	COc1cc2c(Oc3ccc(NC(=O)NCCC(C)(C)C)cc3)ccnc2cc1OCC(=O)N1CCOCC1 [Compound 375, 1-(3,3-Dimethyl-butyl)-3-{4-[6-methoxy-7-(2-morpholin-4-yl-2-oxo-ethoxy)-quinolin-4-yloxy]-phenyl}-urea]	–	–
